# Reference: PubChem BioAssay (NCI)
#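 Interpolation was linear, between the two tested concentrations surrounding the appropriate level; five concentrations were tested over 48 hours in 96-well plates. GI50 is the concentration that inhibits growth by half. At the TGI there is no net growth.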
# How the values were obtained:
# Assay in all cases: NCI anticancer screen, dose series, 48 h
# [1] = test system: HT29 colon
# [2] = test system: A498 renal
# [3] = test system: SK-MEL-2 melanoma
# [4] = test system: RXF 393 renal
# [5] = test system: M14 melanoma
# [6] = test system: K-562 leukemia
# [7] = test system: NCI-H23 lung
# [8] = test system: SW-620 colon
# [9] = test system: CAKI-1 renal
# [10] = test system: SK-OV-3 ovarian
# [11] = test system: HOP-92 NSCLC
# [12] = test system: HCT-116 colon
# [13] = test system: COLO 205 colon
# [14] = test system: OVCAR-8 ovarian
# [15] = test system: EKVX NSCLC
# [16] = test system: NCI/ADR-RES ovarian
# [17] = test system: OVCAR-4 ovarian
# [18] = test system: U251 CNS
# [19] = test system: SN12C renal
# [20] = test system: HCT-15 colon
# [21] = test system: HCC-2998 colon
# [22] = test system: NCI-H226 lung
# [23] = test system: DU-145 prostate
# [24] = test system: T-47D breast
# [25] = test system: OVCAR-5 ovarian
# [26] = test system: BT-549 breast
# [27] = test system: MCF7 breast
# [28] = test system: HOP-62 NSCLC
# [29] = test system: HS 578T breast
# [30] = test system: 786-0 renal
# [31] = test system: KM12 colon
# [32] = test system: IGROV1 ovarian
# [33] = test system: MALME-3M melanoma
# [34] = test system: HL-60(TB) leukemia
# [35] = test system: SR leukemia
# [36] = test system: SF-539 CNS
# [37] = test system: SF-268 CNS
# [38] = test system: UACC-257 melanoma
# [39] = test system: MDA-MB-231 breast
# [40] = test system: SNB-75 CNS
# [41] = test system: NCI-H522 lung
# [42] = test system: CCRF-CEM leukemia
# [43] = test system: UACC-62 melanoma
# [44] = test system: RPMI-8226 leukemia
# [45] = test system: SK-MEL-5 melanoma
# [46] = test system: OVCAR-3 ovarian
# [47] = test system: TK-10 renal
# [48] = test system: MDA-MB-468 breast
# [49] = test system: PC-3 prostate
# [50] = test system: MDA-MB-435
# [51] = test system: UO-31 renal
# [52] = test system: ACHN renal
# [53] = test system: SK-MEL-28 melanoma
# [54] = test system: SF-295 CNS
# [55] = test system: LOX IMVI melanoma
# [56] = test system: SNB-19 CNS
# [57] = test system: NCI-H460 lung
# [58] = test system: MOLT-4 leukemia
# [59] = test system: A549 NSCLC
smiles,measurement,setting,value
O=C(NN1C(=O)/C(=C/C=C/c2ccc([N+](=O)[O-])o2)SC1=S)c1ccc(Cl)cc1,GI50,[1],0.221 µM
same,TGI,[1],0.475 µM
same,GI50,[2],4.2 µM
same,TGI,[2],9.7 µM
same,GI50,[3],0.219 µM
same,TGI,[3],0.503 µM
same,GI50,[4],0.239 µM
same,TGI,[4],0.837 µM
same,GI50,[5],0.189 µM
same,TGI,[5],0.369 µM
same,GI50,[6],0.121 µM
same,TGI,[6],8.28 µM
same,GI50,[7],0.202 µM
same,TGI,[7],0.442 µM
same,GI50,[8],0.143 µM
same,TGI,[8],0.31 µM
same,GI50,[9],0.346 µM
same,TGI,[9],1.14 µM
same,GI50,[10],1.71 µM
same,TGI,[10],3.18 µM
same,GI50,[11],0.299 µM
same,TGI,[11],0.734 µM
same,GI50,[12],0.0848 µM
same,TGI,[12],0.253 µM
same,GI50,[13],0.212 µM
same,TGI,[13],0.428 µM
same,GI50,[14],0.245 µM
same,TGI,[14],0.774 µM
same,GI50,[15],0.285 µM
same,TGI,[15],0.889 µM
same,GI50,[16],0.493 µM
same,TGI,[16],2 µM
same,GI50,[17],1.26 µM
same,TGI,[17],2.79 µM
same,GI50,[18],0.306 µM
same,TGI,[18],1.12 µM
same,GI50,[19],0.172 µM
same,TGI,[19],0.375 µM
same,GI50,[20],0.0647 µM
same,TGI,[20],0.208 µM
same,GI50,[21],0.268 µM
same,TGI,[21],0.706 µM
same,GI50,[22],0.247 µM
same,TGI,[22],0.601 µM
same,GI50,[23],0.614 µM
same,TGI,[23],1.55 µM
same,GI50,[24],1.64 µM
same,TGI,[24],3.1 µM
same,GI50,[25],0.734 µM
same,TGI,[25],2 µM
same,GI50,[26],0.225 µM
same,TGI,[26],0.519 µM
same,GI50,[27],0.293 µM
same,TGI,[27],1.44 µM
same,GI50,[28],0.78 µM
same,TGI,[28],2.12 µM
same,GI50,[29],1.35 µM
same,TGI,[29],4.55 µM
same,GI50,[30],0.241 µM
same,TGI,[30],0.55 µM
same,GI50,[31],0.473 µM
same,TGI,[31],1.91 µM
same,GI50,[32],0.596 µM
same,TGI,[32],1.39 µM
same,GI50,[33],0.186 µM
same,TGI,[33],0.347 µM
same,GI50,[34],2.06 µM
same,TGI,[34],11.3 µM
same,GI50,[35],0.0454 µM
same,TGI,[35],> 100 µM
same,GI50,[36],0.202 µM
same,TGI,[36],0.401 µM
same,GI50,[37],1.53 µM
same,TGI,[37],4.11 µM
same,GI50,[38],1.48 µM
same,TGI,[38],3.22 µM
same,GI50,[39],0.18 µM
same,TGI,[39],0.341 µM
same,GI50,[40],1.2 µM
same,TGI,[40],2.82 µM
same,GI50,[41],0.18 µM
same,TGI,[41],0.353 µM
same,GI50,[42],0.316 µM
same,TGI,[42],9.26 µM
same,GI50,[43],0.223 µM
same,TGI,[43],0.564 µM
same,GI50,[44],0.318 µM
same,TGI,[44],2.18 µM
same,GI50,[45],0.214 µM
same,TGI,[45],0.5 µM
same,GI50,[46],0.268 µM
same,TGI,[46],0.747 µM
same,GI50,[47],1.47 µM
same,TGI,[47],2.92 µM
same,GI50,[48],1.48 µM
same,TGI,[48],3.09 µM
same,GI50,[49],0.863 µM
same,TGI,[49],3.9 µM
same,GI50,[50],0.203 µM
same,TGI,[50],0.446 µM
same,GI50,[51],0.671 µM
same,TGI,[51],1.97 µM
same,GI50,[52],0.288 µM
same,TGI,[52],0.78 µM
same,GI50,[53],0.356 µM
same,TGI,[53],1.1 µM
same,GI50,[54],1.74 µM
same,TGI,[54],3.28 µM
same,GI50,[55],0.219 µM
same,TGI,[55],0.496 µM
same,GI50,[56],1.27 µM
same,TGI,[56],2.54 µM
same,GI50,[57],0.252 µM
same,TGI,[57],0.648 µM
same,GI50,[58],0.397 µM
same,TGI,[58],13.6 µM
C=C1CCC2C3(C)COC(c4cc(F)cc(F)c4)OC3CCC2(C)C1C/C=C1/C(=O)OCC1O (centres undefined),GI50,[1],1.79 µM
same,TGI,[1],3.61 µM
same,GI50,[2],3.41 µM
same,TGI,[2],15.6 µM
same,GI50,[59],2.55 µM
same,TGI,[59],8.39 µM
same,GI50,[3],1.79 µM
same,TGI,[3],3.38 µM
same,GI50,[4],1.73 µM
same,TGI,[4],3.23 µM
same,GI50,[5],1.74 µM
same,TGI,[5],3.39 µM
same,GI50,[6],1.98 µM
same,TGI,[6],6.17 µM
same,GI50,[7],1.88 µM
same,TGI,[7],3.75 µM
same,GI50,[8],1.35 µM
same,TGI,[8],2.81 µM
same,GI50,[9],1.62 µM
same,TGI,[9],3.01 µM
same,GI50,[10],9.79 µM
same,TGI,[10],22 µM
same,GI50,[11],1.77 µM
same,TGI,[11],3.82 µM
same,GI50,[12],1.43 µM
same,TGI,[12],2.93 µM
same,GI50,[13],1.86 µM
same,TGI,[13],3.32 µM
same,GI50,[14],1.77 µM
same,TGI,[14],4.52 µM
same,GI50,[15],2.5 µM
same,TGI,[15],6.5 µM
same,GI50,[16],1.82 µM
same,TGI,[16],3.67 µM
same,GI50,[17],1.85 µM
same,TGI,[17],4.09 µM
same,GI50,[18],1.58 µM
same,TGI,[18],3.03 µM
same,GI50,[19],1.52 µM
same,TGI,[19],2.89 µM
same,GI50,[20],1.44 µM
same,TGI,[20],2.98 µM
same,GI50,[21],1.66 µM
same,TGI,[21],3.16 µM
same,GI50,[22],1.73 µM
same,TGI,[22],3.42 µM
same,GI50,[23],2.21 µM
same,TGI,[23],5.11 µM
same,GI50,[24],1.43 µM
same,TGI,[24],3.1 µM
same,GI50,[25],1.59 µM
same,TGI,[25],3.21 µM
same,GI50,[26],1.41 µM
same,TGI,[26],2.73 µM
same,GI50,[27],1.18 µM
same,TGI,[27],2.6 µM
same,GI50,[28],1.78 µM
same,TGI,[28],3.44 µM
same,GI50,[29],2.11 µM
same,TGI,[29],5.61 µM
same,GI50,[30],1.73 µM
same,TGI,[30],3.13 µM
same,GI50,[31],1.9 µM
same,TGI,[31],3.86 µM
same,GI50,[32],1.81 µM
same,TGI,[32],3.53 µM
same,GI50,[33],1.69 µM
same,TGI,[33],3.15 µM
same,GI50,[34],1.35 µM
same,TGI,[34],3.59 µM
same,GI50,[35],2.08 µM
same,TGI,[35],5.23 µM
same,GI50,[36],1.66 µM
same,TGI,[36],3.02 µM
same,GI50,[37],1.84 µM
same,TGI,[37],3.69 µM
same,GI50,[38],1.73 µM
same,TGI,[38],3.44 µM
same,GI50,[39],1.67 µM
same,TGI,[39],3.25 µM
same,GI50,[40],1.14 µM
same,TGI,[40],2.4 µM
same,GI50,[41],1.64 µM
same,TGI,[41],3.23 µM
same,GI50,[42],0.649 µM
same,TGI,[42],4.19 µM
same,GI50,[43],1.65 µM
same,TGI,[43],3.29 µM
same,GI50,[44],2.05 µM
same,TGI,[44],5.45 µM
same,GI50,[45],1.75 µM
same,TGI,[45],3.21 µM
same,GI50,[46],1.62 µM
same,TGI,[46],3.12 µM
same,GI50,[47],1.68 µM
same,TGI,[47],3.25 µM
same,GI50,[48],1.73 µM
same,TGI,[48],3.16 µM
same,GI50,[49],1.75 µM
same,TGI,[49],3.6 µM
same,GI50,[50],1.55 µM
same,TGI,[50],3.1 µM
same,GI50,[51],1.41 µM
same,TGI,[51],2.7 µM
same,GI50,[52],1.7 µM
same,TGI,[52],3.07 µM
same,GI50,[53],1.77 µM
same,TGI,[53],3.21 µM
same,GI50,[54],1.56 µM
same,TGI,[54],2.98 µM
same,GI50,[55],1.48 µM
same,TGI,[55],2.79 µM
same,GI50,[56],1.73 µM
same,TGI,[56],3.43 µM
same,GI50,[57],1.62 µM
same,TGI,[57],3.2 µM
same,GI50,[58],2.58 µM
same,TGI,[58],7.52 µM
